This is an account of results in patent publication US20240390376A1, “METHOD FOR PREVENTING ADVERSE PREGNANCY OUTCOMES DUE TO USE OF SELECTIVE SEROTONIN REUPTAKE INHIBITORS (SSRI) DURING GESTATION” (Wisconsin Alumni Research Foundation, priority 2023, published 2024).

Read-outs that look alike come from different tables or passages of the source.

Data set [1] relates to pregnant C57Bl/6J mice. As to conditions: experiment 1; for overall neonatal mortality: control 4.1%. As for the experimental part:
(§1) To investigate the role of ketanserin, an exemplary serotonin receptors 2A and 2C antagonist, on preventing SSRI-induced adverse pregnancy and neonatal outcomes, pregnant mice were treated with SSRI, serotonin, and SSRI/serotonin+ketanserin.

The subject of data set [2] is pregnant mice. The data set is described as follows: Experiment 2: as experiment 1, all mice received ketanserin one hour before treatment. Type of data set: in vivo. As to conditions: for litter size / overall neonatal mortality / maternal weight gain / neonatal weight on postnatal day 0: experiment 2; for litter size / overall neonatal mortality: ketanserin 1 mg/kg daily one hour before saline, fluoxetine or serotonin; for maternal weight gain / neonatal weight on postnatal day 0: ketanserin 1 mg/kg daily one hour before saline or serotonin. As for the experimental part: as §1

In data set [3] the test system is pregnant mice. Nature of the data set: Number of mouse pups born in control and treatment groups (FIG. 2A). It counts as in vivo. As to conditions: serotonin 4 mg/kg, fluoxetine 2 mg/kg, ketanserin 1 mg/kg, vs saline control.
In data set [4] the test system is pregnant mice. As to conditions: fluoxetine 2 mg/kg and 20 mg/kg vs control; dose-dependent; FIG. 1C.
Data set [5] deals with pregnant sheep. As to conditions: in vivo.
Description: FIG. 1G compares lamb birthweights between a treatment group and control group.
FIG. 1G compares the lamb birthweights between the treatment group and control group.
The conditions of data set [6]: cited from earlier work.
The subject of data set [7] is pregnant sheep. As to conditions: cited from earlier work.
For data set [8] the following is noted: in vivo; cited from earlier work.
The test system of data set [9] is placenta of mice. The data set is described as follows: Placenta immunostaining (Tunel, caspase 3, Ki67) and placental size, embryonic day 18.5 (FIG. 2B). As to conditions: fluoxetine 20 mg/kg.
Data set [10] deals with SERT null mice. Nature of the data set: Ketanserin rescue of neonatal mortality in SERT null mice. It counts as in vivo. As to conditions: 49.0% without ketanserin. As for the experimental part:
By performing RNA sequencing of placenta from heterozygous Sert+/− mice vs homozygous Sert−/− knockout mice and their respective offspring, it was confirmed that lack of maternal, but not placental or fetal SERT, is associated with placental changes: more than 2,100 genes were differentially expressed in the placenta when the dam was SERT−/−. Importantly, ketanserin also rescued the neonatal mortality in SERT null mice (49.0 vs 23.8% within 24 hours of birth).

The mark [11] stands for this setting: fluoxetine 2 mg/kg or serotonin 5 mg/kg daily.

In turn, `CNCCC(Oc1ccc(C(F)(F)F)cc1)c1ccccc1` (centres unmarked) [fluoxetine] had an overall neonatal mortality in [1] (setting [11]) of 11.6%. In data set [2], this molecule came in with a litter size of 7.4±0.6 and an overall neonatal mortality of 24.3%. Besides, the “number of pups born” value in data set [3] is listed as “significantly reduced”. In data set [4], the mouse pup mortality result is listed as “decidedly negative effect”. Moreover, in data set [5] (female, sheep), the average gestational length is 147.7 days. Moreover, in data set [5], the lamb birthweights result was “weighed significantly less” and the placentome diameter entry was “significantly smaller”. Besides, the placental transfer result in [6] (in vivo) was “about 70%”. Further, in data set [7] (third trimester pregnant sheep), the “blood perfusion to the uterus” value is on record as “rapidly decreased”. Besides, the placentome growth result in data set [7] (treated during the last month of gestation) was “decreased placentome growth”. In addition, in [8], the “number of pups born” value is “decrease”, the pregnancy rates entry was “decreases” and the pup mortality result was “increase”. For the same molecule, the “Tunel-positive apoptotic cells in the placenta” value in data set [9] was “visualized”. The placental size result in data set [9] (ketanserin 1 mg/kg) is on record as “much reduced”.

Regarding `CN[C@H]1CC[C@@H](c2ccc(Cl)c(Cl)c2)c2ccccc21` [sertraline], the placental transfer entry in [6] (low concentrations in the fetal circulation) is listed as “limited placental transfer”. Also, in [8], the “number of pups born” value is recorded as “decrease” and the pup mortality entry is “increase”.

Turning to `NCCc1c[nH]c2ccc(O)cc12` [serotonin, 5-hydroxytryptamine], the “maternal weight gain between DPC10.5 and the day before parturition” value in data set [1] (fluoxetine 2 mg/kg or serotonin 5 mg/kg daily, DPC 10.5 until parturition) was determined as 8.0 ± 0.8 g. Also, in data set [1] (setting [11]), the overall neonatal mortality was determined as 32.3%. In addition, the litter size in data set [1] (fluoxetine 2 mg/kg or serotonin 5 mg/kg daily, control 8.3) was found to be 5.2±0.5. Also, in [1] (serotonin 5 mg/kg daily), the “neonatal weight on postnatal day 0” value was 1.138 ± 0.028 g and the “neonatal weight on postnatal day 1” value stood at 1.223 ± 0.028 g. Also, in data set [2], the maternal weight gain was 10.2 ± 0.6 g, the “neonatal weight on postnatal day 0” value stood at 1.197 ± 0.01 g, the litter size came to 7.0±0.5 and the overall neonatal mortality was found to be 22.8%. Moreover, in data set [3], the “number of pups born” value is recorded as “significantly reduced”.

As to `O=C(c1ccc(F)cc1)C1CCN(CCn2c(=O)[nH]c3ccccc3c2=O)CC1` [ketanserin, 3-[2-[4-(4-fluorobenzoyl)piperidin-1-yl]ethyl]-1H-quinazoline-2,4-dione], in data set [2], the maternal weight gain worked out at 11.4 ± 0.5 g, the “neonatal weight on postnatal day 0” value is 1.264 ± 0.01 g, the litter size amounted to 7.0±0.3 and the overall neonatal mortality worked out at 8.5%. The “placental changes and adverse pregnancy and neonatal outcomes caused by SSRI use” value in data set [2] (summary of the ketanserin studies) is “prevented most placental changes and adverse pregnancy and neonatal outcomes”. Also, in data set [10], the “neonatal mortality within 24 hours of birth” value is on record as 23.8%.
